Experiment [1] has as its system MINOR gene expression. The experiment can be described thus: Quantitative real-time PCR of MINOR gene expression in 3T3-L1 adipocytes. It is filed as cell-based. Conditions: for insulin-stimulated MINOR gene expression: 1 hour. On the procedure:
(§1) FIGS. 3A-3C show the effect of insulin stimulation on MINOR and TR3 gene expression in 3T3-L1 adipocytes. FIGS. 3A and 3B show insulin induces the expression of MINOR and TR3 gene expression in 3T3-L1 adipocytes. Fully differentiated 3T3-L1 adipocytes were treated with 100 nM of insulin for up to 8 hours (treated) or 0 nM insulin (0 hour control). The control and treated adipocytes were lysed and the mRNAs were extracted for cDNA synthesis. Quantitative real-time PCR was used to measure expression of MINOR (FIG. 3A) and TR3 (FIG. 3B) genes. Results represent the mean±SE from three separate experiments. […] Fully differentiated 3T3-L1 adipocytes were treated with 100 nM of insulin alone (control) or plus LY294002 (PI 3-kinase inhibitor), SB203580 (p38 MAP kinase inhibitor), Ro318220 (protein kinase C inhibitor) for one hour. The control and treated adipocytes were lysed and the mRNAs were extracted for cDNAs synthesis. A quantitative real-time PCR was performed for detecting the expression levels of MINOR and TR3 genes. Results represent the mean±SE from three separate experiments.
(§2) Fully differentiated 3T3-L1 adipocytes were treated with 10 uM of the indicated thiazolidinedione (troglitazone or pioglizatone) from 0 to 48 hours. Control cells received vehicle alone. The control and treated adipocytes were lysed and the mRNAs were extracted for cDNA synthesis. Quantitative real-time PCR was used to measure expression levels of MINOR (FIGS. 4A and 4B) and TR3 (FIGS. 4C and 4D) genes. Results represent the mean±SE from three separate experiments.
(§3) Fully differentiated 3T3-L1 adipocytes were treated with 100 nM of insulin for various times (0 to 8 hours; the 0 hour time point served as the control and received no added insulin). The control and treated adipocytes were lysed and the mRNAs were extracted for cDNAs synthesis. A quantitative real-time PCR was performed for detecting the expression levels of MINOR and TR3 genes. […] Insulin also stimulated TR3 gene expression adipocytes, but with a different temporal response with TR3 expression levels returning to baseline by hour 2 after treatment (FIG. 3B).
(§4) The stimulatory effect of insulin on MINOR and TR3 gene expression was dependent on signal transduction via the PI-3-kinase pathway, the p38 MAP-K pathway and the protein kinase C (PKC) pathway. […] A quantitative real-time PCR was performed for detecting the expression levels of MINOR and TR3 genes. […]
(§5) Fully differentiated 3T3-L1 adipocytes were treated with 10 uM of the indicated thiazolidinedione (troglitazone or pioglizatone) from 0 to 48 hours. […] Quantitative real-time PCR was used to measure expression levels of MINOR (FIGS. 4A and 4B) and TR3 (FIGS. 4C and 4D) genes. […]
On the technique in general: Real-time PCR tracks product formation cycle by cycle.

Experiment [2] relates to TR3 gene expression. As to the kind of experiment: Quantitative real-time PCR of TR3 gene expression in 3T3-L1 adipocytes. It is filed as cell-based. The following applies: for insulin-stimulated TR3 gene expression: 1 hour. On the procedure:
as §1, §2, §3, §4, §5

The test system of experiment [3] is Nurr1 gene expression. The experiment can be described thus: Nurr1 gene expression in 3T3-L1 adipocytes. The experiment is classed as cell-based. Conditions: fully differentiated 3T3-L1 adipocytes, 100 nM insulin; data not shown.
Experiment [4] has as its system TR3 gene expression in skeletal muscle. The experiment can be described thus: cDNA microarray of skeletal muscle biopsies, basal vs hyperinsulinemia (TR3). The experiment is classed as in vivo, human. The following applies: insulin stimulation, three hours of hyperinsulinemia vs basal. From the text: (§6) The primary target tissues for insulin action are skeletal muscle, adipose tissue, and the liver tissue. Skeletal muscle is the predominant target tissue for insulin-mediated glucose uptake (responsible for approximately 95% of glucose uptake), and is a critical locus of insulin resistance. Defects in glucose uptake in skeletal muscle is a predominate contributor to the clinical manifestations of insulin resistance. The molecular basis for insulin resistance is not well understood, but appears to involve defects in insulin signal transduction and abnormal cellular trafficking of glucose transporter proteins (5). To better understand the molecular defects responsible for human insulin resistance, skeletal muscle biopsies were obtained from volunteers in three metabolically-defined subgroups: A) insulin sensitive: (B) insulin resistant; and (C) type 2 diabetic. Biopsies from each subgroup were obtained under both basal conditions and after three hours of hyperinsulinemia. Differential gene expression in these muscle biopsies was assessed using cDNA microarray technology utilizing the Affymetrix Hu95A gene expression chips (carried out as per manufacturer's instructions). The effect of insulin on gene expression in human muscle has not been extensively studied, and most prior studies focused on single genes or small numbers of genes with a limited focus (6-8). […]

In experiment [5] the test system is MINOR gene expression in skeletal muscle. As to the kind of experiment: cDNA microarray of skeletal muscle biopsies, basal vs hyperinsulinemia (MINOR). It is filed as in vivo, human. The following applies: insulin stimulation, three hours of hyperinsulinemia vs basal.
From the text: as §6

In experiment [6] the test system is GLUT4 glucose transporters at plasma membrane. As to the kind of experiment: Plasma membrane lawn assay of GLUT4 in adipocytes. It is filed as cell-based. The following applies: control (LacZ transfected) adipocytes, 100 nM insulin, 30 min vs basal. On the procedure:
FIGS. 6A-6D show the effect of MINOR gene expression on insulin-mediated recruitment of GLUT4 glucose transporters to plasma membrane. MINOR gene transduced 3T3-L1 fibroblasts and control LacZ transduced fibroblasts were grown on glass cover slips and differentiated into adipocytes. Adipocytes were then stimulated for 30 min with (insulin-stimulated) or without (basal) 100 nM of insulin. The adipocytes were then washed, and disrupted by sonication leaving and plasma membrane sheets attached to cover slips (plasma membrane lawn assay) (26). Plasma membrane associated GLUT4 was detected using a polyclonal anti-GLUT4 antibody and a FITC-conjugated secondary antibody. (A) basal LacZ expressing adipocytes; (B) insulin-stimulated LacZ expressing adipocytes; (C) basal Minor expressing adipocytes; (D) insulin-stimulated Minor expressing adipocytes.
These experiments use the “plasma membrane lawn” technique (26) to quantify the relative amounts of GLUT4 glucose transporter proteins in the cell surface plasma membrane. MINOR gene transduced 3T3-L1 fibroblasts and control LacZ transduced fibroblasts were grown on glass cover slips and differentiated into adipocytes. […] Plasma membrane associated GLUT4 was detected using a polyclonal anti-GLUT4 antibody and a FITC-conjugated secondary antibody.

The mark [7] stands for this setting: 3T3-L1 adipocytes, 100 nM insulin plus inhibitor 50 nM.
The mark [8] stands for this setting: 3T3-L1 adipocytes, 100 nM insulin plus inhibitor 10 nM.
[9] abbreviates: 3T3-L1 adipocytes, 100 nM insulin.
Setting [10] is: fully differentiated 3T3-L1 adipocytes, 100 nM insulin, 0 to 8 hours.

Experimental findings from patent US20060234910A1, “Methods for the treatment of insulin resistance and disease states characterized by insulin resistance” (priority 2005, published 2006) are described below.

A value given as a limit tells only on which side of the number the result lay.

On to `Cn1cc(C2=C(c3cn(CCCSC(=N)N)c4ccccc34)C(=O)NC2=O)c2ccccc21` [Ro318220, reference compound], for which, in experiment [1] (setting [7]), the “insulin-stimulated MINOR gene expression” value is given as “decreased the ability of insulin to stimulate”. Further, the “insulin-stimulated TR3 gene expression” value in experiment [2] (setting [7]) is on record as “decreased the ability of insulin to stimulate”.
Turning to `C[S+]([O-])c1ccc(-c2nc(-c3ccncc3)c(-c3ccc(F)cc3)[nH]2)cc1` (stereo not drawn) [SB203580, reference compound], the “insulin-stimulated MINOR gene expression” value in experiment [1] (setting [8]) is “decreased the ability of insulin to stimulate”. In addition, the “insulin-stimulated TR3 gene expression” value in experiment [2] (setting [8]) is “decreased the ability of insulin to stimulate”.
Take insulin: the Nurr1 gene expression entry in experiment [3] is “not stimulated”. For the same compound, the “period over which the increase in MINOR gene expression is sustained” value in experiment [1] (setting [9]) came to 4 h. Besides, the MINOR gene expression entry in experiment [1] (setting [10]) was “stimulated”. Besides, the “time at which TR3 expression levels return to baseline after treatment” value in experiment [2] (setting [9]) was ≤ 2 h. The TR3 gene expression result in experiment [2] (setting [10]) is recorded as “stimulated”. In experiment [4], the “TR3 gene expression in human skeletal muscles (microarray)” value was “strongly induced”. Moreover, the “MINOR gene expression in human skeletal muscles (microarray)” value in experiment [5] is given as “strongly induced”. The “plasma membrane associated GLUT4” value in experiment [6] is on record as “increased GLUT4 staining in the plasma membrane”.
